Laboratory results reported in PubChem BioAssay (NCI).
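These data come from cells grown in 96-well plates and exposed to compound for 48 hours at five concentrations. GI50 marks 50% less growth. At the TGI there is no net growth.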

Tests used:
Test in all cases: NCI tumour cell line growth inhibition, 48 h
[1] = test system: CCRF-CEM leukemia
[2] = test system: HT29 colon
[3] = test system: HCT-116 colon
[4] = test system: PC-3 prostate
[5] = test system: HOP-62 NSCLC
[6] = test system: MCF7 breast
[7] = test system: NCI-H460 lung
[8] = test system: MDA-MB-435
[9] = test system: IGROV1 ovarian
[10] = test system: NCI/ADR-RES ovarian
[11] = test system: UACC-257 melanoma
[12] = test system: BT-549 breast
[13] = test system: U251 CNS
[14] = test system: SK-MEL-28 melanoma
[15] = test system: A498 renal
[16] = test system: MALME-3M melanoma
[17] = test system: SK-OV-3 ovarian
[18] = test system: MOLT-4 leukemia
[19] = test system: NCI-H226 lung
[20] = test system: M14 melanoma
[21] = test system: NCI-H23 lung
[22] = test system: CAKI-1 renal
[23] = test system: SW-620 colon
[24] = test system: K-562 leukemia
[25] = test system: SR leukemia
[26] = test system: ACHN renal
[27] = test system: UO-31 renal
[28] = test system: OVCAR-3 ovarian
[29] = test system: COLO 205 colon
[30] = test system: SN12C renal
[31] = test system: SNB-19 CNS
[32] = test system: SNB-75 CNS
[33] = test system: NCI-H522 lung
[34] = test system: SF-295 CNS
[35] = test system: RXF 393 renal
[36] = test system: A549 NSCLC
[37] = test system: HCT-15 colon
[38] = test system: UACC-62 melanoma
[39] = test system: RPMI-8226 leukemia
[40] = test system: TK-10 renal
[41] = test system: T-47D breast
[42] = test system: OVCAR-8 ovarian
[43] = test system: OVCAR-5 ovarian
[44] = test system: HCC-2998 colon
[45] = test system: SF-268 CNS
[46] = test system: SK-MEL-2 melanoma
[47] = test system: EKVX NSCLC
[48] = test system: OVCAR-4 ovarian
[49] = test system: SK-MEL-5 melanoma
[50] = test system: HS 578T breast
[51] = test system: MDA-MB-231 breast
[52] = test system: 786-0 renal
[53] = test system: HOP-92 NSCLC
[54] = test system: KM12 colon
[55] = test system: LOX IMVI melanoma
[56] = test system: SF-539 CNS
[57] = test system: DU-145 prostate
[58] = test system: HL-60(TB) leukemia

## CN1CCC2(CC1)C(=O)Nc1cc(NC(=O)c3ccc4c(c3)C[C@@H]3C(C)(C)[C@H](O)[C@H](F)C[C@@]3(C)O4)ccc12
[1]
  GI50: 92 nM
  TGI: > 100000 nM
[2]
  GI50: 2940 nM
  TGI: 36800 nM
[3]
  GI50: 1350 nM
  TGI: 17200 nM
[4]
  GI50: 117 nM
  TGI: > 100000 nM
[5]
  GI50: 1040 nM
  TGI: 23000 nM
[6]
  GI50: 92.5 nM
  TGI: 21400 nM
[7]
  GI50: 684 nM
  TGI: 25400 nM
[8]
  GI50: 1310 nM
  TGI: 13000 nM
[9]
  GI50: 13100 nM
  TGI: > 100000 nM
[10]
  GI50: > 100000 nM
  TGI: > 100000 nM
[11]
  GI50: 3210 nM
  TGI: 21200 nM
[12]
  GI50: 69.1 nM
  TGI: 20100 nM
[13]
  GI50: 47.2 nM
  TGI: 16400 nM
[14]
  GI50: 1530 nM
  TGI: 14500 nM
[15]
  GI50: 135 nM
  TGI: 1090 nM
[16]
  GI50: 1490 nM
  TGI: 9790 nM
[17]
  GI50: 1710 nM
  TGI: 27300 nM
[18]
  GI50: 34.2 nM
  TGI: 1500 nM
[19]
  GI50: 14000 nM
  TGI: 49300 nM
[20]
  GI50: 549 nM
  TGI: 4370 nM
[21]
  GI50: 10600 nM
  TGI: 42500 nM
[22]
  GI50: 1340 nM
  TGI: 18700 nM
[23]
  GI50: 588 nM
  TGI: 11500 nM
[24]
  GI50: 201 nM
  TGI: > 100000 nM
[25]
  GI50: 51.4 nM
  TGI: 88200 nM
[26]
  GI50: 8590 nM
  TGI: > 100000 nM
[27]
  GI50: 4670 nM
  TGI: 19100 nM
[28]
  GI50: 18500 nM
  TGI: 66800 nM
[29]
  GI50: 1840 nM
  TGI: 7360 nM
[30]
  GI50: 13200 nM
  TGI: > 100000 nM
[31]
  GI50: 1970 nM
  TGI: 22000 nM
[32]
  GI50: 37.3 nM
  TGI: 4800 nM
[33]
  GI50: 10800 nM
  TGI: 33200 nM
[34]
  GI50: 49.5 nM
  TGI: 256 nM
[35]
  GI50: 49.7 nM
  TGI: 10600 nM
[36]
  GI50: 2740 nM
  TGI: 37200 nM
[37]
  GI50: 11000 nM
  TGI: 45800 nM
[38]
  GI50: 405 nM
  TGI: 5130 nM
[39]
  GI50: 27.2 nM
  TGI: 10800 nM
[40]
  GI50: 21400 nM
  TGI: 76300 nM
[41]
  GI50: 5670 nM
  TGI: 28800 nM
[42]
  GI50: 26600 nM
  TGI: > 100000 nM
[43]
  GI50: 12300 nM
  TGI: > 100000 nM
[44]
  GI50: 14200 nM
  TGI: 48300 nM
[45]
  GI50: 6680 nM
  TGI: 31900 nM
[46]
  GI50: 11300 nM
  TGI: 32300 nM
[47]
  GI50: 29800 nM
  TGI: > 100000 nM
[48]
  GI50: 25900 nM
  TGI: > 100000 nM
[49]
  GI50: 2620 nM
  TGI: 12300 nM
[50]
  GI50: 23.2 nM
  TGI: 2240 nM
[51]
  GI50: 3360 nM
  TGI: 21100 nM
[52]
  GI50: 249 nM
  TGI: 14900 nM
[53]
  GI50: 1970 nM
  TGI: 31100 nM
[54]
  GI50: 1380 nM
  TGI: 17700 nM
[55]
  GI50: 550 nM
  TGI: 12500 nM
[56]
  GI50: 56.5 nM
  TGI: 15900 nM
[57]
  GI50: 10600 nM
  TGI: 57600 nM
[58]
  GI50: 84.2 nM
  TGI: 13700 nM

## CN1CCN(c2ccc3nc(-c4[nH]ncc4Nc4ncnc5[nH]ccc45)[nH]c3c2)CC1
[1]
  GI50: 171 nM
  TGI: 22300 nM
[2]
  GI50: 1470 nM
  TGI: 6060 nM
[3]
  GI50: 66.5 nM
[4]
  GI50: 222 nM
  TGI: 3540 nM
[5]
  GI50: 381 nM
  TGI: 4060 nM
[6]
  GI50: 293 nM
  TGI: 11200 nM
[7]
  GI50: 2680 nM
  TGI: 9780 nM
[8]
  GI50: 303 nM
  TGI: 1610 nM
[9]
  GI50: 189 nM
  TGI: 1410 nM
[10]
  GI50: 5240 nM
  TGI: > 100000 nM
[11]
  GI50: 571 nM
  TGI: 20400 nM
[12]
  GI50: 222 nM
  TGI: 816 nM
[13]
  GI50: 234 nM
  TGI: 11400 nM
[14]
  GI50: 309 nM
  TGI: 1750 nM
[15]
  GI50: 253 nM
  TGI: 588 nM
[16]
  GI50: 379 nM
  TGI: 2640 nM
[17]
  GI50: 371 nM
  TGI: 12700 nM
[18]
  GI50: 429 nM
  TGI: 14400 nM
[19]
  GI50: 212 nM
  TGI: 1010 nM
[20]
  GI50: 377 nM
  TGI: 1840 nM
[21]
  GI50: 517 nM
  TGI: 4060 nM
[22]
  GI50: 183 nM
  TGI: 1570 nM
[23]
  GI50: 312 nM
  TGI: 3470 nM
[24]
  GI50: 299 nM
  TGI: > 100000 nM
[25]
  GI50: 47.2 nM
[26]
  GI50: 394 nM
  TGI: 7660 nM
[27]
  GI50: 558 nM
  TGI: 2570 nM
[28]
  GI50: 233 nM
  TGI: 759 nM
[29]
  GI50: 147 nM
  TGI: 695 nM
[30]
  GI50: 358 nM
  TGI: 5710 nM
[31]
  GI50: 349 nM
  TGI: 3880 nM
[32]
  GI50: 116 nM
  TGI: 574 nM
[33]
  GI50: 196 nM
  TGI: 805 nM
[34]
  GI50: 867 nM
  TGI: 3180 nM
[35]
  GI50: 177 nM
  TGI: 397 nM
[36]
  GI50: 1740 nM
  TGI: 15000 nM
[37]
  GI50: 1380 nM
  TGI: 13300 nM
[38]
  GI50: 241 nM
  TGI: 1560 nM
[39]
  GI50: 5920 nM
  TGI: 19300 nM
[40]
  GI50: 1110 nM
  TGI: 3320 nM
[41]
  GI50: 320 nM
  TGI: > 52400 nM
[42]
  GI50: 381 nM
  TGI: > 31100 nM
[43]
  GI50: 418 nM
  TGI: 9190 nM
[44]
  GI50: 375 nM
  TGI: 4520 nM
[45]
  GI50: 250 nM
  TGI: 803 nM
[46]
  GI50: 390 nM
  TGI: 1910 nM
[47]
  GI50: 340 nM
  TGI: 14200 nM
[48]
  GI50: 343 nM
  TGI: 2130 nM
[49]
  GI50: 367 nM
  TGI: 2150 nM
[50]
  GI50: 216 nM
  TGI: 2030 nM
[51]
  GI50: 184 nM
  TGI: 801 nM
[52]
  GI50: 387 nM
  TGI: 2210 nM
[53]
  GI50: 149 nM
  TGI: 535 nM
[54]
  GI50: 517 nM
  TGI: 11600 nM
[55]
  GI50: 148 nM
  TGI: 906 nM
[56]
  GI50: 176 nM
  TGI: 496 nM
[57]
  GI50: 362 nM
  TGI: 22700 nM
[58]
  GI50: 285 nM
  TGI: 686 nM
